Read-outs that look alike come from different tables or passages of the source.
Experiments:
Assay type in all cases: biochemical
PI3K β = PI3K β (Homo sapiens (Human), UniProt P42338); test: PI 3-Kinase (human) HTRF assay, p110β/p85α
Experimental: (§1) An exemplary system is PI 3-Kinase (human) HTRF™ Assay from Upstate. […] Briefly, the assay is a time resolved FRET assay that indirectly measures PIP3 product formed by the activity of a PI3-K. The kinase reaction is performed in a microtitre plate (e.g., a 384 well microtitre plate). The total reaction volume is approximately 20 ul per well. In the first step, each well receives 2 ul of test compound in 20% dimethylsulphoxide resulting in a 2% DMSO final concentration. Next, approximately 14.5 ul of a kinase/PIP2 mixture (diluted in 1× reaction buffer) is added per well for a final concentration of 0.25-0.3 ug/ml kinase and 10 μM PIP2. The plate is sealed and incubated for 15 minutes at room temperature. To start the reaction, 3.5 ul of ATP (diluted in 1× reaction buffer) is added per well for a final concentration of 10 μM ATP. The plate is sealed and incubated for 1 hour at room temperature. The reaction is stopped by adding 5 ul of Stop Solution per well and then 5 ul of Detection Mix is added per well. The plate is sealed, incubated for 1 hour at room temperature, and then read on an appropriate plate reader. Data is analyzed and IC50s are generated using GraphPad Prism 5. For PI3K α, β, δ, and γ, the nM concentration of inhibitor to reach IC50 is provided.

PI3K α = PI3K α (Homo sapiens (Human), UniProt P42336); test: PI 3-Kinase (human) HTRF assay, p110α/p85α
Experimental: as §1

mTORC = mTORC (Homo sapiens (Human), UniProt P42345); test: mTOR inhibition assay (radiometric or LanthaScreen TR-FRET)
Experimental: The compounds described herein can be tested against recombinant mTOR (Invitrogen) in an assay containing 50 mM HEPES, pH 7.5, 1 mM EGTA, 10 mM MgCl2, 2.5 mM, 0.01% Tween, 10 μM ATP (2.5 μCi of μ-32P-ATP), and 3 μg/mL BSA. Rat recombinant PHAS-1/4EBP1 (Calbiochem; 2 mg/mL) is used as a substrate. Reactions are terminated by spotting onto nitrocellulose, which is washed with 1M NaCl/1% phosphoric acid (approximately 6 times, 5-10 minutes each). Sheets are dried and the transferred radioactivity quantitated by phosphorimaging.
For instance, one can use Invitrogen's LanthaScreen™ Kinase assay to test the inhibitors of mTOR disclosed herein. This assay is a time resolved FRET platform that measures the phosphorylation of GFP labeled 4EBP1 by mTOR kinase. The kinase reaction is performed in a white 384 well microtitre plate. The total reaction volume is 20 ul per well and the reaction buffer composition is 50 mM HEPES pH7.5, 0.01% Polysorbate 20, 1 mM EGTA, 10 mM MnCl2, and 2 mM DTT. In the first step, each well receives 2 ul of test compound in 20% dimethylsulphoxide resulting in a 2% DMSO final concentration. Next, 8 ul of mTOR diluted in reaction buffer is added per well for a 60 ng/ml final concentration. To start the reaction, 10 ul of an ATP/GFP-4EBP1 mixture (diluted in reaction buffer) is added per well for a final concentration of 10 μM ATP and 0.5 μM GFP-4EBP1. The plate is sealed and incubated for 1 hour at room temperature. […] The plate is sealed, incubated for 1 hour at room temperature, and then read on a plate reader set up for LanthaScreen™ TR-FRET. Data is analyzed and IC50s are generated using GraphPad Prism 5.

PI3K γ = PI3K γ (Homo sapiens (Human), UniProt P48736); test: PI 3-Kinase (human) HTRF assay, p110γ
Experimental: as §1

PI3K δ = PI3K δ (Homo sapiens (Human), UniProt O00329); test: PI 3-Kinase (human) HTRF assay, p110δ/p85α
[1] = PI 3-Kinase (human) HTRF assay, p110δ/p85α; conditions: read-out: PI3K γ IC50

Chain of PI3K δ (O00329 whole entry): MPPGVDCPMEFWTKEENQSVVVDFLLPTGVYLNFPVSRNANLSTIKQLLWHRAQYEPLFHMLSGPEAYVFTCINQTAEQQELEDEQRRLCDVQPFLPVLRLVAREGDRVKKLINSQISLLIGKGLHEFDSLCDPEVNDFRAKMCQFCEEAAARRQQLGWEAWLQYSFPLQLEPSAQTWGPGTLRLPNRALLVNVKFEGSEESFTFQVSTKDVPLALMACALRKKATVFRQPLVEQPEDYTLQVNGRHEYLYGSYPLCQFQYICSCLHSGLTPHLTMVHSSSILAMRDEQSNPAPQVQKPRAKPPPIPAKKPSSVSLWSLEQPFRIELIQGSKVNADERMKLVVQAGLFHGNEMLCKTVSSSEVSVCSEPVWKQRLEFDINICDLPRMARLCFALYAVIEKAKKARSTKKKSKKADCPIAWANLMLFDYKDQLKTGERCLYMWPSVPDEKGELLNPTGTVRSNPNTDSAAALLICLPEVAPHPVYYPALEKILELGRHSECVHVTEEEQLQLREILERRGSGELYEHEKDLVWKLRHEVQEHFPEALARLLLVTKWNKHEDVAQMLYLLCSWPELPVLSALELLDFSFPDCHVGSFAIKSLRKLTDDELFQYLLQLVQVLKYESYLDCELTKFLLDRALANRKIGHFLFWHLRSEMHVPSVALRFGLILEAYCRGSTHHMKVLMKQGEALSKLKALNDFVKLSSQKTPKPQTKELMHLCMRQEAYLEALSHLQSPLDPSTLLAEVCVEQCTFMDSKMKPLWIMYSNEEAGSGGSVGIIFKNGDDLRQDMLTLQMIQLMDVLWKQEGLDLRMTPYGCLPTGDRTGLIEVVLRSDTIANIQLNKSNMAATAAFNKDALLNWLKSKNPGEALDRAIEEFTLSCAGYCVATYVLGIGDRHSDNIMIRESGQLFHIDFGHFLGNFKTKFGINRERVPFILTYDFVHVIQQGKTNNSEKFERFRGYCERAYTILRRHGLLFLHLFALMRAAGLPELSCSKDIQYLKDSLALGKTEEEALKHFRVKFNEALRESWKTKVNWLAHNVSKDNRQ
Chain of PI3K δ (P27986 whole entry partner): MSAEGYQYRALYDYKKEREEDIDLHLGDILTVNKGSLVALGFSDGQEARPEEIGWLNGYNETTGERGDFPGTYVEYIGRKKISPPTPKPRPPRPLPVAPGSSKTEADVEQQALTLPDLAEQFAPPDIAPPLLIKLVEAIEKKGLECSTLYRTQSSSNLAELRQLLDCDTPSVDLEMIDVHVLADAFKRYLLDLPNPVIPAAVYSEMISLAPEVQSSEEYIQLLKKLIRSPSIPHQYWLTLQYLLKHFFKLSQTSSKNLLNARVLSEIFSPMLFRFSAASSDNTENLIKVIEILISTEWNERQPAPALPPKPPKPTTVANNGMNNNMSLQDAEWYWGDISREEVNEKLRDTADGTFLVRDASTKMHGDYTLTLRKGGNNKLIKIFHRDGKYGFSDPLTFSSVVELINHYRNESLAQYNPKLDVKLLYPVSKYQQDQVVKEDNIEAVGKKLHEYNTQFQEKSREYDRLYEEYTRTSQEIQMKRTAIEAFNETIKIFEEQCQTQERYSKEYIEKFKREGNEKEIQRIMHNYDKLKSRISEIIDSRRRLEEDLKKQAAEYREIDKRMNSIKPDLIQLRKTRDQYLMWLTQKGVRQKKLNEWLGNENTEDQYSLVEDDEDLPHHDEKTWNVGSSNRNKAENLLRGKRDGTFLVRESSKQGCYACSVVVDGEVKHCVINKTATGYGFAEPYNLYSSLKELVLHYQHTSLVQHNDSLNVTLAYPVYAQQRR
Chain of mTORC (P42345 1360-2549): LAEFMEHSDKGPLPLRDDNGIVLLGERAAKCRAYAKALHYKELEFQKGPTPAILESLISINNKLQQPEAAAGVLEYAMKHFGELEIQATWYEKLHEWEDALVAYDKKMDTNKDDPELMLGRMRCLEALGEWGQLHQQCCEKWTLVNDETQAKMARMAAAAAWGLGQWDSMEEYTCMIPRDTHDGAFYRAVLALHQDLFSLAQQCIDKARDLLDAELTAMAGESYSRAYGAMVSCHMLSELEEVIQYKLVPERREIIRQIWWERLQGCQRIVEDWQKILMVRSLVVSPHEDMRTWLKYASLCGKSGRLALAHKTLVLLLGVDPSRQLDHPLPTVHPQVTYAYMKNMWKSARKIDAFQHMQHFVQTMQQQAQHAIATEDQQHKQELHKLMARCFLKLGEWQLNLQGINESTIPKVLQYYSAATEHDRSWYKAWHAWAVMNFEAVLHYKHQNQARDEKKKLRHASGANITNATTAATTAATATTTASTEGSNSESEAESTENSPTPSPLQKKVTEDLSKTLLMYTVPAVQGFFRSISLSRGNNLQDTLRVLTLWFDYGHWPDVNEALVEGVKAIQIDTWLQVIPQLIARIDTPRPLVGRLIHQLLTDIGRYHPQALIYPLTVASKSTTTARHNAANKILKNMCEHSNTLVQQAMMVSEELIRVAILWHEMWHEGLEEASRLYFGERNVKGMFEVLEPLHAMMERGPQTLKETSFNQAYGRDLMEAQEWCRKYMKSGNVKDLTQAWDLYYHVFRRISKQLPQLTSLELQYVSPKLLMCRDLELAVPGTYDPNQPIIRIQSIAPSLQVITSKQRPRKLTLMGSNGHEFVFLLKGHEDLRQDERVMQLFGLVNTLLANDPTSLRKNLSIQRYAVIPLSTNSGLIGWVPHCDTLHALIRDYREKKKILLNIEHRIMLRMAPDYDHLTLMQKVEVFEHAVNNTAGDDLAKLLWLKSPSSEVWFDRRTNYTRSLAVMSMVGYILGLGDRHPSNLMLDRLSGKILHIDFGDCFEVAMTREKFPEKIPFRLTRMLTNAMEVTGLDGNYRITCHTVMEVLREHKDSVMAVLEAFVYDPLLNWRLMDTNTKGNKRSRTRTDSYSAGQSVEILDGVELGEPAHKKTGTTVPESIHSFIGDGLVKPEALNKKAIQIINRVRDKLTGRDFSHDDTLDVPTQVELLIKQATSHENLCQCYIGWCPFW
Chain of PI3K α (P42336 whole entry): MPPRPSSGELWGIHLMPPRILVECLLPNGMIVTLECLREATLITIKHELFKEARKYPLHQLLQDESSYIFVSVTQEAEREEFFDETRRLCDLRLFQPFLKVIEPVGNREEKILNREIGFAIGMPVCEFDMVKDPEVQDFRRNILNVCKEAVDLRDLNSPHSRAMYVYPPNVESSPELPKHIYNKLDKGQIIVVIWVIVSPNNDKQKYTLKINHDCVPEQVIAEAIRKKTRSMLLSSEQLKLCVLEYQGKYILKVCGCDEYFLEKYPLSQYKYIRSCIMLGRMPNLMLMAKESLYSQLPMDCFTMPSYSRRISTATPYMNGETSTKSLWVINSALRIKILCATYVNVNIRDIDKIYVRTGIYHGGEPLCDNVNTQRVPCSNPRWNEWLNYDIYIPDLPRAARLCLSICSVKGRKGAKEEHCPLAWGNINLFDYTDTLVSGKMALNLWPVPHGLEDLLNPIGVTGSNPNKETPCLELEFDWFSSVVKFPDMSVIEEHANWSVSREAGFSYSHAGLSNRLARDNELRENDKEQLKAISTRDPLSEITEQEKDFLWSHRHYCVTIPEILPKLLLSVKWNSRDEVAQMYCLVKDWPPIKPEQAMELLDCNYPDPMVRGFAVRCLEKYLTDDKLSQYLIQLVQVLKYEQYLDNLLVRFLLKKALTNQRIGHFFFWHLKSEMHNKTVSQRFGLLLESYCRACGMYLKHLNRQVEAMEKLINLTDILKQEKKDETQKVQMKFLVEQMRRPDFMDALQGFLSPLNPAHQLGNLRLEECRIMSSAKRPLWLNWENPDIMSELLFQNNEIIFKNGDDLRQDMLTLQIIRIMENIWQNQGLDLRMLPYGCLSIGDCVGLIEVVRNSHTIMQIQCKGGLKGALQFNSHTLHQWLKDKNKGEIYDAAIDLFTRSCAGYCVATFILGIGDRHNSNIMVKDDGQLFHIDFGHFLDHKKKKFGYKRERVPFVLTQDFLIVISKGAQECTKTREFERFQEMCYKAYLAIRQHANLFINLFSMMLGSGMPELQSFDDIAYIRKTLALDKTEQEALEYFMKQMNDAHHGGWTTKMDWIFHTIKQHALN
Chain of PI3K α (P27986 whole entry partner): as the sequence (P27986 whole entry partner) above

Row | SMILES | IC50 (PI3K β) | IC50 (PI3K α) | IC50 (mTORC) | IC50 (PI3K γ; read-out: PI3K γ IC50) | IC50 (PI3K δ) | IC50 (PI3K γ; read-out: PI3K δ IC50) | IC50 [1]
1 | Nc1nc2cc(-c3ccc4ncc(N5CC(C(=O)N6CCOCC6)C5)nc4c3)ccc2o1 [drawing 359] | < 1 µM | < 100 nM | < 10 µM | < 1000 nM | < 1 µM | – | –
2 | CC(=O)Nc1nc2ccc(-c3ccc4nccc(-c5ccncc5)c4c3)cc2s1 [Compound 2] | > 10 µM | < 1000 nM | > 10 µM | < 1000 nM | > 10 µM | – | –
3 | Nc1nc2cc(-c3ccc4ncc(N5CCNC(=O)C5)nc4c3)ccc2o1 | < 1 µM | < 100 nM | > 10 µM | < 1000 nM | > 10 µM | – | –
4 | Nc1nc2cc(-c3ccc4ncc(-c5cccnc5)nc4c3)ccc2o1 | > 10 µM | < 100 nM | < 10 µM | < 1000 nM | > 10 µM | – | –
5 | Cn1cc(-c2ccnc3ccc(-c4ccc5oc(N)nc5c4)cc23)cn1 [Compound 26] | – | < 100 nM | < 1 µM | < 100 nM | < 0.1 µM | – | –
6 | CN1CCN(C2CN(c3cnc4ccc(-c5ccc6oc(N)nc6c5)nc4c3)C2)CC1=O | < 10 µM | < 100 nM | < 10 µM | < 100 nM | < 1 µM | – | –
7 | Nc1nc2cc(-c3ccc4ncc(OC5CCOCC5)nc4c3)ccc2o1 [Compound 49] | – | < 100 nM | < 10 µM | < 1000 nM | < 10 µM | – | –
8 | Nc1nc2cc(-c3ccc4nccn4c3)ccc2o1 [Compound 40] | – | < 10000 nM | < 10 µM | < 10000 nM | > 10 µM | – | –
9 | Nc1nc2cc(-c3ccc4ncc(-c5ccc6nc(N)oc6c5)n4c3)ccc2o1 [Compound 50] | – | < 100 nM | > 10 µM | < 100 nM | < 10 µM | – | –
10 | C[C@@H]1CN(C2CN(c3cnc4ccc(-c5ccc6oc(N)nc6c5)nc4c3)C2)CCN1C | < 10 µM | < 100 nM | > 10 µM | – | < 1 µM | – | –
11 | CN1CCC(Nc2ncnc3ccc(-c4ccc5oc(N)nc5c4)cc23)CC1 [Compound 35] | – | < 100 nM | < 10 µM | < 100 nM | < 0.1 µM | – | –
12 | CC(C)N1CCN(C2CN(c3cnc4ccc(-c5ccc6oc(N)nc6c5)cc4n3)C2)CC1 | < 10 µM | < 100 nM | > 10 µM | – | – | < 10000 nM | < 10 µM
13 | Cc1nccn1C1CN(c2cnc3ccc(-c4ccc5oc(N)nc5c4)cc3n2)C1 | < 10 µM | < 100 nM | < 10 µM | – | – | < 10000 nM | < 10 µM
14 | CN1CCN(C2CN(c3cnc4ccc(-c5ccc6oc(N)nc6c5)cc4n3)C2)CC1=O | < 10 µM | < 100 nM | > 10 µM | – | – | < 1000 nM | < 10 µM
15 | CS(=O)(=O)Nc1cc(-c2ccc3ncc(C(=O)N4CCOCC4)n3c2)cnc1Cl | < 0.1 µM | < 100 nM | < 0.1 µM | – | – | < 100 nM | < 0.1 µM
16 | Nc1nc2cc(-c3ccc4ncc(N5CCC(n6ccnc6)CC5)nc4c3)ccc2o1 | < 1 µM | < 100 nM | < 10 µM | – | – | < 1000 nM | < 1 µM
17 | Nc1nc2cc(-c3ccc4ncn(C5CCOCC5)c(=O)c4c3)ccc2o1 | – | < 1000 nM | > 10 µM | > 10000 nM | > 10 µM | – | –
18 | CCN(CC)C1CN(c2cnc3ccc(-c4ccc5oc(N)nc5c4)cc3n2)C1 | < 10 µM | < 100 nM | > 10 µM | – | – | < 1000 nM | < 10 µM
19 | Cn1cc(-c2cnc3ccc(-c4ccc5oc(N)nc5c4)cn23)cn1 [Compound 41] | – | < 100 nM | < 10 µM | < 1000 nM | < 1 µM | – | –
20 | Cc1ccn(C2CN(c3cnc4ccc(-c5ccc6oc(N)nc6c5)cc4n3)C2)n1 | < 10 µM | < 100 nM | > 10 µM | – | – | < 10000 nM | < 10 µM
21 | Nc1nc2cc(-c3ccc4ncc(N5CC(N6CC[C@H](O)C6)C5)nc4c3)ccc2o1 | < 1 µM | < 100 nM | > 10 µM | – | – | < 1000 nM | < 10 µM
22 | Nc1nc2cc(-c3ccc4ncc(N5CC(N6CCN(C7CC7)CC6)C5)nc4c3)ccc2o1 | < 10 µM | < 100 nM | < 10 µM | – | – | < 10000 nM | < 10 µM
23 | Nc1nc2cc(-c3ccc4nc(N)sc4c3)ccc2o1 | < 1 µM | < 1000 nM | < 10 µM | – | – | < 1000 nM | < 10 µM
24 | Nc1nc2cc(-c3ccc4ncc(N5CC(N6CC[C@@H](O)C6)C5)nc4c3)ccc2o1 | < 10 µM | < 100 nM | < 1 µM | – | – | < 10000 nM | < 10 µM
25 | Nc1nc2cc(-c3ccc4ncc(N5CCN(C(=O)[C@@H](N)CO)CC5)nc4c3)ccc2o1 | < 1 µM | < 100 nM | < 10 µM | – | – | < 10000 nM | < 10 µM

Row | SMILES | IC50 (PI3K β) | IC50 (PI3K α) | IC50 (mTORC) | IC50 (PI3K γ; read-out: PI3K γ IC50) | IC50 (PI3K δ) | IC50 (PI3K γ; read-out: PI3K δ IC50) | IC50 [1]
26 | CN1CCN(c2ccc(-c3cnc4ccc(-c5ccc6oc(N)nc6c5)cn34)cn2)CC1 [Compound 42] | – | < 100 nM | > 10 µM | < 1000 nM | < 1 µM | – | –
27 | CCN1CCN(C2CN(c3cnc4ccc(-c5ccc6oc(N)nc6c5)cc4n3)C2)CC1 | < 1 µM | < 100 nM | > 10 µM | – | – | < 10000 nM | < 1 µM
28 | Nc1ncc(-c2ccc3oc(N)nc3c2)cn1 | > 10 µM | > 10000 nM | > 10 µM | – | – | < 10000 nM | > 10 µM
29 | Nc1nc2cc(-c3ccc4ncc(N5CC(N6CCNCC6)C5)nc4c3)ccc2o1 | < 1 µM | < 100 nM | > 10 µM | – | – | < 1000 nM | < 1 µM
30 | CN1CCC(n2cnc3ccc(-c4ccc5oc(N)nc5c4)cc3c2=O)CC1 [Compound 36] | – | < 100 nM | < 10 µM | > 10000 nM | < 10 µM | – | –
31 | CC(C)[C@@H](N)C(=O)N1CCN(c2cnc3ccc(-c4ccc5oc(N)nc5c4)cc3n2)CC1 | < 1 µM | < 100 nM | < 10 µM | – | – | < 1000 nM | < 1 µM
32 | CC1(C)CN(C2CN(c3cnc4ccc(-c5ccc6oc(N)nc6c5)cc4n3)C2)CCN1 | < 1 µM | < 100 nM | < 0.1 µM | – | – | < 1000 nM | < 1 µM
33 | C[C@H]1COCCN1C1CN(c2cnc3ccc(-c4ccc5oc(N)nc5c4)nc3n2)C1 | > 10 µM | < 100 nM | > 10 µM | – | < 10 µM | – | –
34 | CC(=O)N1CCN(C2CN(c3cnc4ccc(-c5ccc6oc(N)nc6c5)cc4n3)C2)CC1 | < 10 µM | < 100 nM | > 10 µM | – | – | < 1000 nM | < 1 µM
35 | CN1CCN(C(=O)c2cnc3ccc(-c4ccc5oc(N)nc5c4)cn23)CC1 [Compound 44] | – | < 100 nM | < 10 µM | < 10000 nM | < 10 µM | – | –
36 | Nc1nc2cc(-c3ccc4ncc(N5CCNC(C(F)(F)F)C5)nc4c3)ccc2o1 (stereo not drawn) | < 1 µM | < 100 nM | < 1 µM | – | – | < 1000 nM | < 10 µM
37 | Nc1nc2cc(-c3ccc4ncc(N5CC(N6CCOCC6)C5)nc4c3)c(F)cc2o1 | < 10 µM | < 100 nM | > 10 µM | – | – | < 10000 nM | < 10 µM
38 | Cc1cc2oc(N)nc2cc1-c1ccc2ncc(N3CC(N4CCOCC4)C3)nc2c1 | > 10 µM | < 10000 nM | > 10 µM | – | – | > 10000 nM | > 10 µM
39 | Nc1nc2cc(-c3nc(N4CCOCC4)c4cnn(C5CCNCC5)c4n3)ccc2o1 | < 0.1 µM | < 1000 nM | < 1 µM | – | – | < 1000 nM | < 10 µM
40 | CN(C)[C@@H]1CCN(c2cnc3ccc(-c4ccc5oc(N)nc5c4)cc3n2)C1 | < 0.1 µM | < 100 nM | < 1 µM | – | – | < 10000 nM | < 10 µM
41 | COc1ncc(-c2ccc3ncc(C(=O)N4CCOCC4)n3c2)cc1NS(=O)(=O)c1ccc(F)cc1F | < 0.1 µM | < 100 nM | < 1 µM | – | – | < 100 nM | < 0.1 µM
42 | N#Cc1cnc2ccc(-c3ccc4oc(N)nc4c3)cc2c1-c1ccncc1 [Compound 46] | – | < 100 nM | < 0.1 µM | < 100 nM | < 0.1 µM | – | –
43 | Nc1nc2cc(-c3ccc4ncc(-c5ccnc(N6CCOCC6)c5)n4c3)ccc2o1 [Compound 52] | – | < 100 nM | < 10 µM | < 100 nM | < 0.1 µM | – | –
44 | Nc1nc2cc(-c3ccc4ncc(N5CC[C@H](O)C5)nc4c3)ccc2o1 | < 1 µM | < 100 nM | < 10 µM | – | – | < 1000 nM | > 10 µM
45 | Nc1nc2cc(-c3ccc4ncc(N5CC(N6CCN(CCO)CC6)C5)nc4c3)ccc2o1 | < 10 µM | < 100 nM | > 10 µM | – | – | < 10000 nM | < 1 µM
46 | C[C@H]1CN(C2CN(c3cnc4ccc(-c5ccc6oc(N)nc6c5)cc4n3)C2)CCN1 | < 10 µM | < 100 nM | > 10 µM | – | – | > 10000 nM | < 10 µM
47 | CS(=O)(=O)N1CCN(C2CN(c3cnc4ccc(-c5ccc6oc(N)nc6c5)cc4n3)C2)CC1 | < 10 µM | < 100 nM | > 10 µM | – | – | < 10000 nM | < 10 µM
48 | CN1CCN(c2cnc3ccc(-c4ccc5oc(N)nc5c4)cc3n2)CC1=O | < 1 µM | < 100 nM | < 10 µM | – | – | < 1000 nM | < 10 µM
49 | CS(=O)(=O)N1CCN(C2CCN(c3cnc4ccc(-c5ccc6oc(N)nc6c5)cc4n3)CC2)CC1 | < 10 µM | < 100 nM | < 10 µM | – | – | < 1000 nM | < 10 µM

Reference: patent publication US9682141B2, “Combination of kinase inhibitors and uses thereof” (INTELLIKINE LLC, priority 2011, dated 2017)
